Reference: US20250230193A1, “CYCLIC COMPOUND HAVING SELECTIVE KRAS INHIBITORY EFFECT ON HRAS AND NRAS” (CHUGAI SEIYAKU KABUSHIKI KAISHA, priority 2022, published 2025)
Where a SMILES comes first, the peptide text is derived from it. Bridges are numbered along the chain shown (N, C = ends). [ ]: non-standard residue; d: D form. The star is where a group is joined. hPhe(3-Cl-4-CF3) = N[C@@H](CCc1ccc(C(F)(F)F)c(Cl)c1)C(=O)O; NPrPhe(4-CF3) = CCCN[C@@H](Cc1ccc(C(F)(F)F)cc1)C(=O)O; NEtPhe(4-CF3) = CCN[C@@H](Cc1ccc(C(F)(F)F)cc1)C(=O)O; NEtPhe(4-F) = CCN[C@@H](Cc1ccc(F)cc1)C(=O)O; NMeGly(cPent) = CN[C@H](C(=O)O)C1CCCC1; NMeD = CN[C@@H](CC(=O)O)C(=O)O; NMeL = CN[C@@H](CC(C)C)C(=O)O; Morpholide = C1CN(*)CCO1; NMeA = CN[C@@H](C)C(=O)O; Ac5c = NC1(C(=O)O)CCCC1; Aze = O=C(O)[C@@H]1CCN1; Aib = CC(C)(N)C(=O)O; Sar = CNCC(=O)O

Assays:
[1] = biological target: GDP-bound HRAS wild-type protein (Homo sapiens, UniProt P01112); experiment: Binding to HRAS by surface plasmon resonance (SPR), Single Cycle Kinetics; conditions: SPR
[2] = biological target: GDP-bound NRAS wild-type protein (Homo sapiens, UniProt P01111); experiment: Binding to NRAS by surface plasmon resonance (SPR), Single Cycle Kinetics; conditions: SPR
[3] = KD ratio, GDP-bound HRAS wild-type vs GDP-bound KRAS wild-type
[4] = KD ratio, GDP-bound NRAS wild-type vs GDP-bound KRAS wild-type

Chain of GDP-bound HRAS wild-type protein (P01112 whole entry): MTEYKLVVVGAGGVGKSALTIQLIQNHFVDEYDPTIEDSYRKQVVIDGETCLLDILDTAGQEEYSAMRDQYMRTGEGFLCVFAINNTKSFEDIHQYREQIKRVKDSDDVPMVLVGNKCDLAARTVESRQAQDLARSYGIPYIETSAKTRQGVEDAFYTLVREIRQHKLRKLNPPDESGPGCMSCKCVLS
Chain of GDP-bound NRAS wild-type protein (P01111 whole entry): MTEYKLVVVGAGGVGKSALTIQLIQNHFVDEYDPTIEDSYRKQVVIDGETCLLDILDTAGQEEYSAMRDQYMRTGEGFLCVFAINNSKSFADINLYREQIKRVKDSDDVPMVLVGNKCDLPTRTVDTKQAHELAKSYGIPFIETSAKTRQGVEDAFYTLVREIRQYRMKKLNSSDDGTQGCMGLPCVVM

## CC[C@H](C)[C@@H]1NC(=O)[C@H](CC(C)C)N(C)C(=O)C[C@@H](C(=O)N2CCOCC2)N(C)C(=O)[C@H](C2CCCC2)N(C)C(=O)C2(CCCC2)NC(=O)[C@@H]2CCCN2C(=O)[C@H](CCc2ccc(C(F)(F)F)c(Cl)c2)NC(=O)CN(C)C(=O)[C@H](Cc2ccc(F)cc2)N(CC)C(=O)[C@@H]2CCN2C(=O)[C@H](C)N(C)C1=O [PP0218] ([NMeL]I[NMeA][Aze][NEtPhe(4-F)][Sar][hPhe(3-Cl-4-CF3)]P[Ac5c][NMeGly(cPent)][NMeD]-Morpholide; lactam N-11)
[1]; KD ratio HRAS/KRAS
  HRAS/KRAS (ratio of KD for GDP-bound HRAS wild-type to KD for KRAS): C (A compound having a KD ratio of 0.1 or more and less than 3 is denoted as C)
[2]; KD ratio NRAS/KRAS
  NRAS/KRAS (ratio of KD for GDP-bound NRAS wild-type to KD for KRAS): C (A compound having a KD ratio of 0.1 or more and less than 3 is denoted as C)

## CC[C@H](C)[C@@H]1NC(=O)[C@H](CC(F)F)N(C)C(=O)C[C@@H](C(=O)N(C)C)N(C)C(=O)[C@H](C2CCCC2)N(C)C(=O)C2(CC(C)(C)C2)NC(=O)[C@@H]2C[C@H](C)CN2C(=O)[C@H](CCc2cc(F)c(C(F)(F)F)c(F)c2)NC(=O)CN(C)C(=O)[C@H](Cc2ccc(C(F)(F)F)cc2)N2CC/C=C\C[C@@H](C2=O)N(C)C(=O)CN(C)C1=O [PP1658]
[1]; [3]
  HRAS/KRAS (ratio of KD value for HRAS to KD value for KRAS): A (a compound having 10 or more and less than 20 is denoted as A)
[2]; [4]
  NRAS/KRAS (ratio of KD value for NRAS to KD value for KRAS): A (a compound having 10 or more and less than 20 is denoted as A)

## CC[C@H](C)[C@@H]1NC(=O)[C@H](CC(C)C)N(C)C(=O)C[C@@H](C(=O)N2CCOCC2)N(C)C(=O)[C@H](C2CCCC2)N(C)C(=O)C(C)(C)NC(=O)[C@@H]2CCCN2C(=O)[C@H](CCc2ccc(C(F)(F)F)c(Cl)c2)NC(=O)CN(C)C(=O)[C@H](Cc2ccc(C(F)(F)F)cc2)N(CC)C(=O)[C@@H]2CCN2C(=O)[C@H](C)N(C)C1=O [PP0221] ([NMeL]I[NMeA][Aze][NEtPhe(4-CF3)][Sar][hPhe(3-Cl-4-CF3)]P[Aib][NMeGly(cPent)][NMeD]-Morpholide; lactam N-11)
[1]; KD ratio HRAS/KRAS
  HRAS/KRAS (ratio of KD for GDP-bound HRAS wild-type to KD for KRAS): C (A compound having a KD ratio of 0.1 or more and less than 3 is denoted as C)
[2]; KD ratio NRAS/KRAS
  NRAS/KRAS (ratio of KD for GDP-bound NRAS wild-type to KD for KRAS): C (A compound having a KD ratio of 0.1 or more and less than 3 is denoted as C)

## C#CC[C@H]1C(=O)N[C@@H]([C@@H](C)CC)C(=O)N(C)CC(=O)N(C)[C@H]2C/C=C\CCN(C2=O)[C@@H](Cc2ccc(C)cc2)C(=O)N(C)CC(=O)N[C@@H](CCc2ccc(C(F)(F)F)c(Cl)c2)C(=O)N2CC3(CC3)C[C@H]2C(=O)NC2(CC(C)(C)C2)C(=O)N(C)[C@@H](C2CCCC2)C(=O)N(C)[C@H](C(=O)N(C)C)CC(=O)N1C [PP2982]
[1]; KD ratio HRAS/KRAS, GDP-bound wild-type proteins
  HRAS/KRAS (ratio of KD value with respect to GDP-bound HRAS wild-type protein to KD value with respect to KRAS): A (a compound having 10 or more and less than 20 is denoted as A)
[2]; KD ratio NRAS/KRAS, GDP-bound wild-type proteins
  NRAS/KRAS (ratio of KD value with respect to GDP-bound NRAS wild-type protein to KD value with respect to KRAS): A (a compound having 10 or more and less than 20 is denoted as A)

## CCCOC[C@H]1C(=O)N[C@@H]([C@@H](C)OCC)C(=O)N2CCC[C@H]2C(=O)N(C)[C@H]2C/C=C\CCN(C2=O)[C@@H](Cc2ccc(C)cc2)C(=O)N(C)CC(=O)N[C@@H](CCc2ccc(C(F)(F)F)c(OC)c2)C(=O)N2C[C@@H](C)C[C@H]2C(=O)NC2(CC(C)(C)C2)C(=O)N(C)[C@@H](C2CCCC2)C(=O)N(C)[C@H](C(=O)N(C)CC)CC(=O)N1C [PP2431]
[1]; GDP-bound HRAS wild-type vs GDP-bound KRAS wild-type
  HRAS/KRAS (ratio of KD value with respect to HRAS to KD value with respect to KRAS): A (a compound having 10 or more and less than 20 is denoted as A)
[2]; GDP-bound NRAS wild-type vs GDP-bound KRAS wild-type
  NRAS/KRAS (ratio of KD value with respect to NRAS to KD value with respect to KRAS): A (a compound having 10 or more and less than 20 is denoted as A)

## CCO[C@@H]1C[C@H]2C(=O)NC3(CCC3)C(=O)N(C)[C@@H](C3CCCC3)C(=O)N(C)[C@H](C(=O)N(C)C)CC(=O)N(C)[C@@H](CC)C(=O)N[C@@H]([C@@H](C)CC)C(=O)N3CCSC[C@H]3C(=O)N(C)[C@H]3C/C=C\CCN(C3=O)[C@@H](Cc3ccc(C(F)(F)F)cc3)C(=O)N(C)CC(=O)N[C@@H](CCc3cc(F)c(C(F)(F)F)c(F)c3)C(=O)N2C1 [PP1060]
[1]; [3]
  HRAS/KRAS (ratio of KD value with respect to HRAS to KD value with respect to KRAS): A (a compound having 10 or more and less than 20 is denoted as A)
[2]; [4]
  NRAS/KRAS (ratio of KD value with respect to NRAS to KD value with respect to KRAS): A (a compound having 10 or more and less than 20 is denoted as A)

## CCCN1C(=O)[C@@H]2CCN2C(=O)[C@H](C)N(C)C(=O)[C@H]([C@@H](C)CC)NC(=O)[C@H](CC(C)C)NC(=O)C[C@@H](C(=O)N2CCOCC2)N(C)C(=O)[C@H](C2CCCC2)N(C)C(=O)C2(CCCC2)NC(=O)[C@@H]2CCCN2C(=O)[C@H](CCc2ccc(C(F)(F)F)c(Cl)c2)NC(=O)CN(C)C(=O)[C@@H]1Cc1ccc(C(F)(F)F)cc1 [PP0154] (LI[NMeA][Aze][NPrPhe(4-CF3)][Sar][hPhe(3-Cl-4-CF3)]P[Ac5c][NMeGly(cPent)][NMeD]-Morpholide; lactam N-11)
[1]; KD ratio HRAS/KRAS
  HRAS/KRAS (ratio of KD for GDP-bound HRAS wild-type to KD for KRAS): B (a compound having 3 or more and less than 10 is denoted as B)
[2]; KD ratio NRAS/KRAS
  NRAS/KRAS (ratio of KD for GDP-bound NRAS wild-type to KD for KRAS): C (A compound having a KD ratio of 0.1 or more and less than 3 is denoted as C)
